The values that follow come from PMC9250534, “Synthesis and direct assay of large macrocycle diversities by combinatorial late-stage modification at picomole scale” (Nature Communications, 2022).

One experiment deals with MDM2 (Homo sapiens, UniProt Q00987). Nature of the experiment: MDM2 binding screen of Libraries 3 and 4: displacement of fluorescent probe F-M8 at 750 nM macrocycle. The settings on record: Panel b, Library 3: 63 scaffolds combinatorially acylated with 15 carboxylic acids at 30 picomole scale; displacement of fluorescent peptide probe; macrocycle 750 nM. An outline of the steps: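 Cyclic peptide scaffolds were acylated in DMSO with carboxylic acids (20 equiv.), HBTU and DABCO for 6 h at room temperature. Reactions were quenched overnight in 100 mM Tris-Cl pH 7.4, 0.01% Tween20. The fluorescein conjugate was also competed with nutlin-3a.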
Chain of MDM2 (Q00987 whole entry): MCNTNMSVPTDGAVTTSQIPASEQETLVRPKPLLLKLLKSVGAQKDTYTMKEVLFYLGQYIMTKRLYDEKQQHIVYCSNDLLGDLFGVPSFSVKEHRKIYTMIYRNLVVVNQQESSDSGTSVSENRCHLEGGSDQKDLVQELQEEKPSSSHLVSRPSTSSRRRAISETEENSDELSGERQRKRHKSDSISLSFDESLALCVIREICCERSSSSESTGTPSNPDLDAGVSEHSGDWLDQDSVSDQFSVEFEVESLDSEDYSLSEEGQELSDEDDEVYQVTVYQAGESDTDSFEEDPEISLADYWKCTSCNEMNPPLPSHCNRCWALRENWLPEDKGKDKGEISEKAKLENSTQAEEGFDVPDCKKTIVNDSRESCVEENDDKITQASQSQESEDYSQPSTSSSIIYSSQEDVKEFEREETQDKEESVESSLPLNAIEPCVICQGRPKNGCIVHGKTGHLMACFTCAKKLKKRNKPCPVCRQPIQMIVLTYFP
As to `O=C(NC[C@@H]1NC(=O)[C@H]2CCCN(C2)C(=O)CCSSCCNC(=O)[C@H](Cc2c[nH]c3cc(Cl)ccc23)NC1=O)c1ccc(Cl)s1` [X-Nip-Dap-Cl-Trp + Acid 14], the “fraction of fluorescent probe displaced” value is recorded as 0.181.

On to `O=C(NC[C@@H]1NC(=O)[C@H]2CCCN(C2)C(=O)CCSSCCNC(=O)[C@H](Cc2c[nH]c3cc(Cl)ccc23)NC1=O)c1ccc2ccccc2c1` [X-Nip-Dap-Cl-Trp + Acid 107], for which the “fraction of fluorescent probe displaced” value is on record as 0.232.

Regarding `O=C(/C=C/c1ccc(Cl)cc1)NC[C@@H]1NC(=O)[C@H]2CCCN(C2)C(=O)CCSSCCNC(=O)[C@H](Cc2c[nH]c3cc(Cl)ccc23)NC1=O` [X-Nip-Dap-Cl-Trp + Acid 108], the “fraction of fluorescent probe displaced” value is recorded as 0.108.

In the case of `O=C(NC[C@@H]1NC(=O)[C@H]2CCCN(C2)C(=O)CCSSCCNC(=O)[C@H](Cc2c[nH]c3cc(Cl)ccc23)NC1=O)c1cccc(Oc2ccccc2)c1` [X-Nip-Dap-Cl-Trp + Acid 111], the “fraction of fluorescent probe displaced” value amounted to 0.075.

`O=C(/C=C/c1ccc2ccccc2c1)NC[C@@H]1NC(=O)[C@H]2CCCN(C2)C(=O)CCSSCCNC(=O)[C@H](Cc2c[nH]c3cc(Cl)ccc23)NC1=O` [X-Nip-Dap-Cl-Trp + Acid 112]: the “fraction of fluorescent probe displaced” value is recorded as 0.221.

On to `CC(Oc1cccc(Cl)c1)C(=O)NC[C@@H]1NC(=O)[C@H]2CCCN(C2)C(=O)CCSSCCNC(=O)[C@H](Cc2c[nH]c3cc(Cl)ccc23)NC1=O` (stereo partly drawn) [X-Nip-Dap-Cl-Trp + Acid 113], for which the “fraction of fluorescent probe displaced” value came to 0.008.

Take `O=C(CCS(=O)(=O)c1ccccc1)NC[C@@H]1NC(=O)[C@H]2CCCN(C2)C(=O)CCSSCCNC(=O)[C@H](Cc2c[nH]c3cc(Cl)ccc23)NC1=O` [X-Nip-Dap-Cl-Trp + Acid 114]: the “fraction of fluorescent probe displaced” value is reported as -0.012.

`O=C(NC[C@@H]1NC(=O)[C@H]2CCCN(C2)C(=O)CCSSCCNC(=O)[C@@H](Cc2c[nH]c3ccccc23)NC1=O)c1ccc(Cl)s1` [X-Nip-Dap-D-Trp + Acid 14]: the “fraction of fluorescent probe displaced” value is -0.172.

Regarding `O=C(NC[C@@H]1NC(=O)[C@H]2CCCN(C2)C(=O)CCSSCCNC(=O)[C@@H](Cc2c[nH]c3ccccc23)NC1=O)c1ccc(Cl)cc1` [X-Nip-Dap-D-Trp + Acid 25], the “fraction of fluorescent probe displaced” value is -0.045.

As for `O=C(/C=C/c1ccncc1)NC[C@@H]1NC(=O)[C@H]2CCCN(C2)C(=O)CCSSCCNC(=O)[C@@H](Cc2c[nH]c3ccccc23)NC1=O` [X-Nip-Dap-D-Trp + Acid 106], the “fraction of fluorescent probe displaced” value was -0.015.

For `O=C(NC[C@@H]1NC(=O)[C@H]2CCCN(C2)C(=O)CCSSCCNC(=O)[C@@H](Cc2c[nH]c3ccccc23)NC1=O)c1ccc2ccccc2c1` [X-Nip-Dap-D-Trp + Acid 107], the “fraction of fluorescent probe displaced” value turned out to be 0.044.

As for `O=C(/C=C/c1ccc(OCc2ccccc2)cc1)NC[C@@H]1NC(=O)[C@H]2CCCN(C2)C(=O)CCSSCCNC(=O)[C@@H](Cc2c[nH]c3ccccc23)NC1=O` [X-Nip-Dap-D-Trp + Acid 110], the “fraction of fluorescent probe displaced” value came out at 0.00133.

Take `O=C(/C=C/c1ccc2ccccc2c1)NC[C@@H]1NC(=O)[C@H]2CCCN(C2)C(=O)CCSSCCNC(=O)[C@@H](Cc2c[nH]c3ccccc23)NC1=O` [X-Nip-Dap-D-Trp + Acid 112]: the “fraction of fluorescent probe displaced” value came to 0.021.

Turning to `CC(Oc1cccc(Cl)c1)C(=O)NC[C@@H]1NC(=O)[C@H]2CCCN(C2)C(=O)CCSSCCNC(=O)[C@@H](Cc2c[nH]c3ccccc23)NC1=O` (stereo partly drawn) [X-Nip-Dap-D-Trp + Acid 113], the “fraction of fluorescent probe displaced” value was -0.00533.

Take `O=C(CCS(=O)(=O)c1ccccc1)NC[C@@H]1NC(=O)[C@H]2CCCN(C2)C(=O)CCSSCCNC(=O)[C@@H](Cc2c[nH]c3ccccc23)NC1=O` [X-Nip-Dap-D-Trp + Acid 114]: the “fraction of fluorescent probe displaced” value is reported as 0.00133.

On to `Cn1cc(C[C@@H]2NC(=O)[C@H](CNC(=O)c3ccc(Cl)s3)NC(=O)[C@H]3CCCN(C3)C(=O)CCSSCCNC2=O)c2ccccc21` [X-Nip-Dap-Me-Trp + Acid 14], for which the “fraction of fluorescent probe displaced” value worked out at 0.028.

`Cn1cc(C[C@@H]2NC(=O)[C@H](CNC(=O)c3ccc4ccccc4c3)NC(=O)[C@H]3CCCN(C3)C(=O)CCSSCCNC2=O)c2ccccc21` [X-Nip-Dap-Me-Trp + Acid 107]: the “fraction of fluorescent probe displaced” value is 0.076.

Regarding `Cn1cc(C[C@@H]2NC(=O)[C@H](CNC(=O)/C=C/c3ccc(Cl)cc3)NC(=O)[C@H]3CCCN(C3)C(=O)CCSSCCNC2=O)c2ccccc21` [X-Nip-Dap-Me-Trp + Acid 108], the “fraction of fluorescent probe displaced” value turned out to be 0.075.

Turning to `Cn1cc(C[C@@H]2NC(=O)[C@H](CNC(=O)/C=C/c3ccc4ccccc4c3)NC(=O)[C@H]3CCCN(C3)C(=O)CCSSCCNC2=O)c2ccccc21` [X-Nip-Dap-Me-Trp + Acid 112], the “fraction of fluorescent probe displaced” value is on record as 0.188.

The same experiment, now with this note: Panel c, Library 4: best nine scaffolds and 15 additional carboxylic acids; displacement of fluorescent probe.
Regarding `CC(=Cc1ccccc1)C(=O)NCC1NC(=O)C2CCCN(C2)C(=O)CCSSCCNC(=O)C(Cc2ccc3ccccc3c2)NC1=O` (stereo not drawn) [X-Nip-Dap-2-Nal + Acid 123], the “fraction of fluorescent probe displaced” value amounted to 0.012.

With `CC(C)c1ccc(/C=C/C(=O)NC[C@@H]2NC(=O)[C@H]3CCCN(C3)C(=O)CCSSCCNC(=O)[C@H](Cc3ccc4ccccc4c3)NC2=O)cc1` [X-Nip-Dap-2-Nal + Acid 127], the “fraction of fluorescent probe displaced” value is -0.021.

For `O=C(NC[C@@H]1NC(=O)[C@H]2CCCN(C2)C(=O)CCSSCCNC(=O)[C@H](Cc2ccc3ccccc3c2)NC1=O)c1cnc2ccccc2n1` [X-Nip-Dap-2-Nal + Acid 130], the “fraction of fluorescent probe displaced” value worked out at 0.0035.

For `O=C(/C=C/c1ccc(F)cc1)NC[C@@H]1NC(=O)[C@H]2CCCN(C2)C(=O)CCSSCCNC(=O)[C@H](Cc2c[nH]c3cc(Cl)ccc23)NC1=O` [X-Nip-Dap-Cl-Trp + Acid 116], the “fraction of fluorescent probe displaced” value came out at 0.289.

Turning to `CCOc1ccc(/C=C/C(=O)NC[C@@H]2NC(=O)[C@H]3CCCN(C3)C(=O)CCSSCCNC(=O)[C@H](Cc3c[nH]c4cc(Cl)ccc34)NC2=O)cc1` [X-Nip-Dap-Cl-Trp + Acid 117], the “fraction of fluorescent probe displaced” value was determined as 0.207.

Regarding `O=C(/C=C/c1ccc(Cl)c(Cl)c1)NC[C@@H]1NC(=O)[C@H]2CCCN(C2)C(=O)CCSSCCNC(=O)[C@H](Cc2c[nH]c3cc(Cl)ccc23)NC1=O` [X-Nip-Dap-Cl-Trp + Acid 119], the “fraction of fluorescent probe displaced” value was 0.134.

As for `O=C(/C=C/c1cccc(Cl)c1)NC[C@@H]1NC(=O)[C@H]2CCCN(C2)C(=O)CCSSCCNC(=O)[C@H](Cc2c[nH]c3cc(Cl)ccc23)NC1=O` [X-Nip-Dap-Cl-Trp + Acid 121], the “fraction of fluorescent probe displaced” value is 0.207.

Regarding `O=C(/C=C/c1cccc(C(F)(F)F)c1)NC[C@@H]1NC(=O)[C@H]2CCCN(C2)C(=O)CCSSCCNC(=O)[C@H](Cc2c[nH]c3cc(Cl)ccc23)NC1=O` [X-Nip-Dap-Cl-Trp + Acid 122], the “fraction of fluorescent probe displaced” value stood at 0.166.

For the compound `CC(C)c1ccc(/C=C/C(=O)NC[C@@H]2NC(=O)[C@H]3CCCN(C3)C(=O)CCSSCCNC(=O)[C@H](Cc3c[nH]c4cc(Cl)ccc34)NC2=O)cc1` [X-Nip-Dap-Cl-Trp + Acid 127], the “fraction of fluorescent probe displaced” value was found to be 0.109.

On to `O=C(NC[C@@H]1NC(=O)[C@H]2CCCN(C2)C(=O)CCSSCCNC(=O)[C@H](Cc2c[nH]c3cc(Cl)ccc23)NC1=O)c1cnc2ccccc2n1` [X-Nip-Dap-Cl-Trp + Acid 130], for which the “fraction of fluorescent probe displaced” value amounted to 0.044.
